Laboratory results from patent publication US10517889B2, “Modulators of SMAD7 expression” (Ionis Pharmaceuticals, Inc., priority 2017, dated 2019).
Strand notation (5' to 3'): a small letter for the sugar, then the base; units joined by * are phosphorothioate-linked, units joined directly phosphodiester-linked; [ ] holds rarer units or linkages, { } end groups; capitals alone tell only the bases. e = 2'-O-(2-methoxyethyl) (MOE); [5mC] = 5-methylcytosine; d = 2'-deoxy (DNA)

Experiments:
human SMAD7 mRNA [1] = test: Antisense inhibition of human SMAD7 mRNA expression in Hep3B cells by 5-10-5 MOE gapmers, single concentration, electroporation, RT-PCR (Example 1, Study 1 and 2); assay type: cell-based; details: for % Inhibition: Study 2, electroporation with 15,000 nM antisense oligonucleotide
How it was run: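 Readout is percent SMAD7 mRNA inhibition versus untreated cells, measured by qRT-PCR (RTS5062) and corrected for total RNA by RIBOGREEN. Oligonucleotide, 5,000 nM or 15,000 nM, was delivered by electroporation into Hep3B cells at 20,000 per well. RNA was collected about 24 h later.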

human SMAD7 mRNA [2] = test: Dose-dependent inhibition of human SMAD7 mRNA expression in Hep3B cells (Example 3, Study 1 and 2); assay type: cell-based; details: electroporation; for % inhibition of SMAD7 mRNA expression: approximately 16 hours; for IC50: Study 1 (312.5-20000 nM)
How it was run: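 Hep3B cells, 20,000 per well, electroporated with antisense oligonucleotide at 0.31, 1.25, 5.00 or 20.00 μM (first series) or 0.74, 2.22, 6.67 or 20.00 μM (second series). After ~16 h, SMAD7 mRNA measured by RT-qPCR (RTS5062), normalised to RIBOGREEN total RNA. Percent inhibition vs untreated cells; IC50 derived.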

[3] = electroporation, 15,000 nM antisense oligonucleotide (Study 2), 5-10-5 MOE gapmers targeting SEQ ID NO: 1 and 2
[4] = 312.5 nM, Study 1, relative to untreated control cells
[5] = electroporation, 15,000 nM, approximately 24 hours, relative to untreated control cells, gapmers targeting SEQ ID NO: 1 and 2
[6] = 5-10-5 MOE gapmers targeting SEQ ID NO: 1 and 2

Row | Substance | % inhibition of SMAD7 mRNA expression (human SMAD7 mRNA [1]; [3]) [%] | % inhibition of SMAD7 mRNA expression (human SMAD7 mRNA [2]; [4]) [%] | % inhibition of SMAD7 mRNA expression (human SMAD7 mRNA [2]; 1250.0 nM, Study 1) [%] | % inhibition of SMAD7 mRNA expression (human SMAD7 mRNA [2]; 5000.0 nM, Study 1) [%] | % inhibition of SMAD7 mRNA expression (human SMAD7 mRNA [2]; 20000.0 nM, Study 1) [%] | IC50 (human SMAD7 mRNA [2]) [µM] | % inhibition of SMAD7 mRNA expression (human SMAD7 mRNA [1]; [5]) [%] | % Inhibition (human SMAD7 mRNA [1]; [6]) [%] | % inhibition of SMAD7 mRNA expression (human SMAD7 mRNA [1]; electroporation, 5,000 nM, approximately 24 hours, relative to untreated control cells, gapmers targeting SEQ ID NO: 1 and 2) [%] | % Inhibition of SMAD7 mRNA (human SMAD7 mRNA [1]; electroporation with 15,000 nM antisense oligonucleotide (Study 2), 5-10-5 MOE gapmers targeting SEQ ID NO: 1 and 2) [%]
1 | 771850 (antisense eT*e[5mC]*e[5mC]*e[5mC]*eA*d[5mC]*dT*dT*d[5mC]*dT*d[5mC]*d[5mC]*dT*d[5mC]*dT*eG*eG*e[5mC]*eT*eG) [compound 771850] | 58 | 0 | 8 | 20 | 44 | > 20 | – | – | – | –
2 | 771869 (antisense eA*eG*e[5mC]*e[5mC]*eA*dA*dG*dT*dG*dT*d[5mC]*d[5mC]*dA*dT*d[5mC]*eA*eA*eG*e[5mC]*eA) [compound 771869] | – | 10 | 0 | 24 | 43 | > 20 | 62 | – | – | –
3 | 771885 (antisense e[5mC]*eA*eA*eG*eT*d[5mC]*dT*d[5mC]*dT*dT*dA*d[5mC]*d[5mC]*dT*d[5mC]*eA*e[5mC]*e[5mC]*e[5mC]*eA) [compound 771885] | – | 0 | 4 | 20 | 45 | > 20 | 60 | – | – | –
4 | 771891 (antisense e[5mC]*eT*e[5mC]*e[5mC]*e[5mC]*dA*dA*dG*d[5mC]*d[5mC]*dT*dA*d[5mC]*dA*dT*eA*eT*eT*eT*e[5mC]) [compound 771891] | – | 0 | 0 | 10 | 33 | > 20 | – | 56 | 65 | –
5 | 771900 (antisense eA*eT*eG*e[5mC]*e[5mC]*d[5mC]*dA*d[5mC]*d[5mC]*dA*dG*dT*d[5mC]*dT*dT*e[5mC]*e[5mC]*eT*eG*eA) [compound 771900] | – | 0 | 11 | 8 | 29 | > 20 | – | 32 | – | –
6 | 771902 (antisense eG*eG*eG*eT*eT*d[5mC]*dT*d[5mC]*d[5mC]*dA*dG*d[5mC]*d[5mC]*dG*d[5mC]*eT*e[5mC]*eA*eG*eA) [compound 771902] | – | 0 | 17 | 29 | 59 | 13 | – | 77 | – | –
7 | 771937 (antisense eT*e[5mC]*e[5mC]*eA*eG*dT*dG*d[5mC]*dT*dT*dG*dT*dG*d[5mC]*dA*eT*eG*eT*eG*e[5mC]) [compound 771937] | 52 | 0 | 0 | 4 | 41 | > 20 | – | – | – | –
8 | 771944 (antisense eG*eG*eT*eA*eA*dT*dT*dT*dT*d[5mC]*d[5mC]*dT*d[5mC]*dA*dA*e[5mC]*eA*eG*eG*e[5mC]) [compound 771944] | 8 | 0 | 34 | 35 | 48 | > 20 | – | – | – | 50
